Where a name gives a salt, the structure may show the parent alone.
Experiments:
[1] = Acute toxicity, oral, observed for seven days; conditions: in vivo, ddN male mouse about 20 g
[2] = pentobarbital acts nonselectively; cited from earlier work
[3] = tested on: brain cells (delayed neuronal damage); conditions: Kirino et al., Progress in Brain Research, vol. 63: 39-58 (1985); cited from earlier work

Compound | LD50 at 168 h [1] | Action on central nervous system [2] | Effect of protection of brain cells / suppression of delayed neuronal damage [3]
COc1cc(C(O)CN2CCN(C(c3ccccc3)c3ccccc3)CC2)cc(OC)c1OC (stereo not shown) [B, 2(4-diphenylmethylpiperazinyl)-1-(3,4,5-trimethoxyphenyl)ethanol monohydrochloride] | > 2000 mg/kg | – | –
Oc1ccc(C(O)CN2CCN(C(c3ccccc3)c3ccccc3)CC2)cc1 (stereo not shown) [C, 2(4-diphenylmethylpiperazinyl)-1-(4-hydroxyphenyl)ethanol monohydrochloride] | > 2000 mg/kg | – | –
CCCC(C)C1(CC)C(=O)NC(=O)NC1=O (stereo not shown) [pentobarbital] | – | the action of central nervous system is also strongly subsided | markedly suppress the above-mentioned delayed neuronal damage

Source: patent US4835155A, “Process for protection of brain cells” (Nippon Chemiphar Co., Ltd., priority 1986, dated 1989)
